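Compound exposure: 48 hours, 5 concentrations, 96-well plates. GI50 marks 50% less growth.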 Activity calls are given as the source filed them. No stated cut-off is given here; in the data, active = GI50 up to about 1.1 µM and inactive = higher.
Tests used:
Assay in all cases: DTP human tumour cell line panel, 48 h
NCI-H460 = tested on: NCI-H460
OVCAR-8 = tested on: OVCAR-8
UACC-62 = tested on: UACC-62
Malme-3M = tested on: Malme-3M
HL-60 = tested on: HL-60
ACHN = tested on: ACHN
RXF 393 = tested on: RXF 393
MDA-N = tested on: MDA-N
SNB-19 = tested on: SNB-19
MCF7 = tested on: MCF7
SF-295 = tested on: SF-295
MDA-MB-231 = tested on: MDA-MB-231
LOX IMVI = tested on: LOX IMVI
OVCAR-5 = tested on: OVCAR-5
NCI/ADR-RES = tested on: NCI/ADR-RES
IGROV-1 = tested on: IGROV-1
CAKI-1 = tested on: CAKI-1
SF-539 = tested on: SF-539
PC-3 = tested on: PC-3
U-251 = tested on: U-251
MDA-MB-435 = tested on: MDA-MB-435
SN12C = tested on: SN12C
DU-145 = tested on: DU-145
SK-OV-3 = tested on: SK-OV-3
SK-MEL-28 = tested on: SK-MEL-28
BT-549 = tested on: BT-549
M14 = tested on: M14
SW-620 = tested on: SW-620
T47D = tested on: T47D
Hs-578T = tested on: Hs-578T
UO-31 = tested on: UO-31
OVCAR-4 = tested on: OVCAR-4
HCT-116 = tested on: HCT-116
NCI-H226 = tested on: NCI-H226
HCT-15 = tested on: HCT-15
UACC-257 = tested on: UACC-257
K562 = tested on: K562
A498 = tested on: A498
EKVX = tested on: EKVX
HOP-92 = tested on: HOP-92
COLO 205 = tested on: COLO 205
A549 = tested on: A549
KM12 = tested on: KM12
OVCAR-3 = tested on: OVCAR-3
HT-29 = tested on: HT-29
SNB-75 = tested on: SNB-75
NCI-H522 = tested on: NCI-H522
SK-MEL-5 = tested on: SK-MEL-5
HCC 2998 = tested on: HCC 2998
CCRF-CEM = tested on: CCRF-CEM
HOP-62 = tested on: HOP-62
SF-268 = tested on: SF-268
786-0 = tested on: 786-0
NCI-H23 = tested on: NCI-H23
MOLT-4 = tested on: MOLT-4
SK-MEL-2 = tested on: SK-MEL-2
TK-10 = tested on: TK-10
RPMI-8226 = tested on: RPMI-8226

Question: What does the source list for `Cc1ccc(C2=Nc3c(c(C)nn3-c3ccccc3)N=C(C(=O)O)C2)cc1`?
Answer: GI50 (NCI-H460): > 10 µM (inactive); GI50 (OVCAR-8): > 10 µM (inactive); GI50 (UACC-62): > 10 µM (inactive); GI50 (Malme-3M): > 10 µM (inactive); GI50 (HL-60): > 10 µM (inactive); GI50 (ACHN): > 10 µM (inactive); GI50 (RXF 393): > 10 µM (inactive); GI50 (MDA-N): > 10 µM (inactive); GI50 (SNB-19): > 10 µM (inactive); GI50 (MCF7): > 10 µM (inactive); GI50 (SF-295): > 10 µM (inactive); GI50 (MDA-MB-231): > 10 µM (inactive); GI50 (LOX IMVI): > 10 µM (inactive); GI50 (OVCAR-5): > 10 µM (inactive); GI50 (NCI/ADR-RES): > 10 µM (inactive); GI50 (IGROV-1): > 10 µM (inactive); GI50 (CAKI-1): > 10 µM (inactive); GI50 (SF-539): > 10 µM (inactive); GI50 (PC-3): > 10 µM (inactive); GI50 (U-251): > 10 µM (inactive); GI50 (MDA-MB-435): > 10 µM (inactive); GI50 (SN12C): > 10 µM (inactive); GI50 (DU-145): > 10 µM (inactive); GI50 (SK-OV-3): > 10 µM (inactive); GI50 (SK-MEL-28): > 10 µM (inactive); GI50 (BT-549): > 10 µM (inactive); GI50 (M14): > 10 µM (inactive); GI50 (SW-620): > 10 µM (inactive); GI50 (T47D): > 10 µM (inactive); GI50 (Hs-578T): > 10 µM (inactive); GI50 (UO-31): > 10 µM (inactive); GI50 (OVCAR-4): > 10 µM (inactive); GI50 (HCT-116): > 10 µM (inactive); GI50 (NCI-H226): > 10 µM (inactive); GI50 (HCT-15): > 10 µM; GI50 (UACC-257): > 10 µM (inactive); GI50 (K562): > 10 µM (inactive); GI50 (A498): > 10 µM (inactive); GI50 (EKVX): > 10 µM (inactive); GI50 (HOP-92): > 10 µM (inactive); GI50 (COLO 205): > 10 µM (inactive); GI50 (A549): > 10 µM (inactive); GI50 (KM12): > 10 µM (inactive); GI50 (OVCAR-3): > 10 µM (inactive); GI50 (HT-29): > 10 µM (inactive); GI50 (SNB-75): > 10 µM (inactive); GI50 (NCI-H522): > 10 µM (inactive); GI50 (SK-MEL-5): > 10 µM (inactive); GI50 (HCC 2998): > 10 µM (inactive); GI50 (CCRF-CEM): > 10 µM (inactive); GI50 (HOP-62): > 10 µM (inactive); GI50 (SF-268): > 10 µM (inactive); GI50 (786-0): > 10 µM (inactive); GI50 (NCI-H23): > 10 µM (inactive); GI50 (MOLT-4): > 10 µM (inactive); GI50 (SK-MEL-2): > 10 µM (inactive); GI50 (TK-10): > 10 µM (inactive)

Question: Which results are given for `O=C(c1ccccc1)c1ccc2c(c1)nc1n2C(c2c(F)cccc2F)SC1` (configuration not stated)?
Answer: GI50 (NCI-H460): 17.1 µM (inactive); GI50 (OVCAR-8): 24.5 µM (inactive); GI50 (UACC-62): 15.5 µM (inactive); GI50 (Malme-3M): 31.2 µM (inactive); GI50 (ACHN): 28.8 µM (inactive); GI50 (RXF 393): 29 µM (inactive); GI50 (MDA-N): 19.7 µM (inactive); GI50 (SNB-19): 32.1 µM (inactive); GI50 (MCF7): 26.5 µM (inactive); GI50 (SF-295): 17.9 µM (inactive); GI50 (MDA-MB-231): 41.9 µM (inactive); GI50 (LOX IMVI): 25.6 µM (inactive); GI50 (OVCAR-5): 25.8 µM (inactive); GI50 (NCI/ADR-RES): 29.9 µM (inactive); GI50 (IGROV-1): 52.4 µM (inactive); GI50 (CAKI-1): 21.1 µM (inactive); GI50 (SF-539): 28.6 µM (inactive); GI50 (PC-3): 16.3 µM (inactive); GI50 (U-251): 28.8 µM (inactive); GI50 (MDA-MB-435): 27.3 µM (inactive); GI50 (SN12C): 18.7 µM (inactive); GI50 (DU-145): 40.5 µM (inactive); GI50 (SK-OV-3): 30.5 µM (inactive); GI50 (SK-MEL-28): 32.1 µM (inactive); GI50 (BT-549): 26.7 µM (inactive); GI50 (M14): 20.8 µM (inactive); GI50 (SW-620): 37.2 µM (inactive); GI50 (T47D): 4.71 µM (inactive); GI50 (Hs-578T): 59 µM (inactive); GI50 (UO-31): 11.6 µM (inactive); GI50 (OVCAR-4): 21.7 µM (inactive); GI50 (HCT-116): 15 µM (inactive); GI50 (NCI-H226): 34.8 µM (inactive); GI50 (HCT-15): 36.6 µM; GI50 (UACC-257): 29.6 µM (inactive); GI50 (A498): 19.5 µM (inactive); GI50 (EKVX): 11.5 µM (inactive); GI50 (HOP-92): 40.5 µM (inactive); GI50 (COLO 205): 24.1 µM (inactive); GI50 (A549): 22 µM (inactive); GI50 (KM12): 11.2 µM (inactive); GI50 (OVCAR-3): 19.9 µM (inactive); GI50 (HT-29): 13 µM (inactive); GI50 (SNB-75): 18.9 µM (inactive); GI50 (RPMI-8226): 30.3 µM (inactive); GI50 (NCI-H522): 34.7 µM (inactive); GI50 (SK-MEL-5): 12.9 µM (inactive); GI50 (HCC 2998): 36.5 µM (inactive); GI50 (HOP-62): 34 µM (inactive); GI50 (SF-268): 49.9 µM (inactive); GI50 (786-0): 27.4 µM (inactive); GI50 (NCI-H23): 28.8 µM (inactive); GI50 (SK-MEL-2): 18.5 µM (inactive); GI50 (TK-10): 39.2 µM (inactive)

Question: Which results are given for `Oc1[nH]c(Nc2ccc(Cl)c(C(F)(F)F)c2)nc2ncnc1-2`?
Answer: GI50 (NCI-H460): 51.8 µM (inactive); GI50 (OVCAR-8): 31.8 µM (inactive); GI50 (UACC-62): 32.6 µM (inactive); GI50 (Malme-3M): 30.3 µM (inactive); GI50 (ACHN): 44.5 µM (inactive); GI50 (RXF 393): 26.1 µM (inactive); GI50 (MDA-N): 25.6 µM (inactive); GI50 (SNB-19): 45.1 µM (inactive); GI50 (MCF7): 27.2 µM (inactive); GI50 (SF-295): > 100 µM (inactive); GI50 (MDA-MB-231): 42.2 µM (inactive); GI50 (LOX IMVI): 25.5 µM (inactive); GI50 (OVCAR-5): 65.9 µM (inactive); GI50 (NCI/ADR-RES): > 100 µM (inactive); GI50 (IGROV-1): 35.7 µM (inactive); GI50 (CAKI-1): > 100 µM (inactive); GI50 (SF-539): 26 µM (inactive); GI50 (PC-3): 33 µM (inactive); GI50 (U-251): 50.5 µM (inactive); GI50 (MDA-MB-435): 50.2 µM (inactive); GI50 (SN12C): 32.5 µM (inactive); GI50 (DU-145): 36.1 µM (inactive); GI50 (SK-OV-3): > 100 µM (inactive); GI50 (BT-549): 36.6 µM (inactive); GI50 (M14): 57.4 µM (inactive); GI50 (SW-620): 70 µM (inactive); GI50 (T47D): 24.5 µM (inactive); GI50 (Hs-578T): 38.5 µM (inactive); GI50 (UO-31): > 100 µM (inactive); GI50 (OVCAR-4): 72.1 µM (inactive); GI50 (HCT-116): 34.7 µM (inactive); GI50 (NCI-H226): > 100 µM (inactive); GI50 (HCT-15): > 100 µM; GI50 (UACC-257): 59.2 µM (inactive); GI50 (K562): 39.6 µM (inactive); GI50 (A498): 24 µM (inactive); GI50 (EKVX): 53.1 µM (inactive); GI50 (HOP-92): 58.5 µM (inactive); GI50 (COLO 205): 27.2 µM (inactive); GI50 (A549): > 100 µM (inactive); GI50 (KM12): 44.8 µM (inactive); GI50 (OVCAR-3): 36.6 µM (inactive); GI50 (HT-29): 33 µM (inactive); GI50 (SNB-75): 33.9 µM (inactive); GI50 (RPMI-8226): > 100 µM (inactive); GI50 (NCI-H522): 14.2 µM (inactive); GI50 (SK-MEL-5): 40.4 µM (inactive); GI50 (HCC 2998): 24.7 µM (inactive); GI50 (CCRF-CEM): 21 µM (inactive); GI50 (HOP-62): > 100 µM (inactive); GI50 (SF-268): 36.2 µM (inactive); GI50 (786-0): 25.7 µM (inactive); GI50 (NCI-H23): 73.8 µM (inactive); GI50 (MOLT-4): 23.2 µM (inactive); GI50 (SK-MEL-2): 25.5 µM (inactive); GI50 (TK-10): 52.6 µM (inactive)

Reference: ChEMBL document CHEMBL1201862, “PubChem BioAssay data set” (2004)
